Data on 7 compounds can be found in ChEMBL document CHEMBL4342421, “Current scenario of tetrazole hybrids for antibacterial activity” (Eur J Med Chem, 2019).

Format in all cases: functional
The subject of experiment [1] is Escherichia coli. Put plainly: Antimicrobial activity against Escherichia coli.
In experiment [2] the test system is Pseudomonas aeruginosa. Kind of experiment: Antimicrobial activity against Pseudomonas aeruginosa.
Experiment [3] deals with Staphylococcus aureus. Kind of experiment: Antimicrobial activity against Staphylococcus aureus.
The subject of experiment [4] is Bacillus cereus. Kind of experiment: Antimicrobial activity against Bacillus cereus.
Experiment [5] deals with Candida albicans. Kind of experiment: Antifungal activity against Candida albicans.
Experiment [6] relates to Staphylococcus aureus. Put plainly: Antimicrobial activity against Staphylococcus aureus assessed as zone of inhibition at 250 ug/ml. As to conditions: read-out: IZ.
In experiment [7] the test system is Bacillus cereus. Put plainly: Antimicrobial activity against Bacillus cereus assessed as zone of inhibition at 250 ug/ml. The settings on record: read-out: IZ.
Experiment [8] relates to Escherichia coli. Kind of experiment: Antimicrobial activity against Escherichia coli assessed as zone of inhibition at 250 ug/ml. The settings on record: read-out: IZ.
Experiment [9] has as its system Pseudomonas aeruginosa. Put plainly: Antimicrobial activity against Pseudomonas aeruginosa assessed as zone of inhibition at 250 ug/ml. As to conditions: read-out: IZ.
In experiment [10] the test system is Candida albicans. Kind of experiment: Antifungal activity against Candida albicans assessed as zone of inhibition at 250 ug/ml. As to conditions: read-out: IZ.
For experiment [11], the system named is Aspergillus niger. Put plainly: Antifungal activity against Aspergillus niger assessed as zone of inhibition at 250 ug/ml. The settings on record: read-out: IZ.
In experiment [12] the test system is Aspergillus niger. Kind of experiment: Antifungal activity against Aspergillus niger.

SMILES strings stand for the structures. Converted amounts (≈) assume the structure as drawn.

One may read the MIC as the lowest concentration found to suppress growth. The low end stands for greater potency, the high end for weaker potency.

Consider `CN(C)c1ccc(-c2nnnn2-c2nc3ccccc3s2)cc1`, for which the MIC with Escherichia coli [1], against Pseudomonas aeruginosa [2], against Staphylococcus aureus [3], with Bacillus cereus [4], in the experiment on Candida albicans [5] and in the experiment with Aspergillus niger [12] was 50 to 100 µg/mL (≈ 155 to 310 µM) throughout. Also, the zone of inhibition at 250 µg/mL in the experiment with Staphylococcus aureus [6], in the experiment on Bacillus cereus [7], in the experiment with Escherichia coli [8], in the experiment on Pseudomonas aeruginosa [9], in the experiment on Candida albicans [10] and with Aspergillus niger [11] was 16 to 26 mm in each case.
As to `c1ccc(-c2nnnn2-c2nc3ccccc3s2)cc1`, the MIC in the experiment with Escherichia coli [1], against Pseudomonas aeruginosa [2], against Staphylococcus aureus [3], in the experiment on Bacillus cereus [4], in the experiment on Candida albicans [5] and in the experiment with Aspergillus niger [12] was 50 to 100 µg/mL (≈ 179 to 358 µM) throughout. Besides, the zone of inhibition at 250 µg/mL in the experiment with Staphylococcus aureus [6], in the experiment on Bacillus cereus [7], in the experiment on Escherichia coli [8], with Pseudomonas aeruginosa [9], in the experiment on Candida albicans [10] and with Aspergillus niger [11] was 16 to 26 mm in each case.
In the case of `Oc1cccc(-c2nnnn2-c2nc3ccccc3s2)c1`, the MIC against Escherichia coli [1], with Pseudomonas aeruginosa [2], with Staphylococcus aureus [3], against Bacillus cereus [4], against Candida albicans [5] and against Aspergillus niger [12] was 50 to 100 µg/mL (≈ 169 to 339 µM) each time. The zone of inhibition at 250 µg/mL with Staphylococcus aureus [6], with Bacillus cereus [7], in the experiment with Escherichia coli [8], in the experiment with Pseudomonas aeruginosa [9], in the experiment with Candida albicans [10] and in the experiment with Aspergillus niger [11] was 16 to 26 mm in each case.
Take `COc1cc(-c2nnnn2-c2nc3ccccc3s2)cc(OC)c1OC`: the MIC in the experiment on Escherichia coli [1], against Pseudomonas aeruginosa [2], with Staphylococcus aureus [3], in the experiment with Bacillus cereus [4], against Candida albicans [5] and against Aspergillus niger [12] was 50 to 100 µg/mL (≈ 135 to 271 µM) throughout. Also, the zone of inhibition at 250 µg/mL in the experiment with Staphylococcus aureus [6], in the experiment with Bacillus cereus [7], in the experiment with Escherichia coli [8], in the experiment with Pseudomonas aeruginosa [9], with Candida albicans [10] and in the experiment with Aspergillus niger [11] was 16 to 26 mm in each case.
For the compound `Cc1ccc(-c2nnnn2-c2nc3ccccc3s2)cc1`, the MIC with Escherichia coli [1], with Pseudomonas aeruginosa [2], against Staphylococcus aureus [3], in the experiment with Bacillus cereus [4], against Candida albicans [5] and against Aspergillus niger [12] was 50 to 100 µg/mL (≈ 170 to 341 µM) throughout. The zone of inhibition at 250 µg/mL in the experiment with Staphylococcus aureus [6], with Bacillus cereus [7], with Escherichia coli [8], in the experiment with Pseudomonas aeruginosa [9], in the experiment on Candida albicans [10] and with Aspergillus niger [11] was 16 to 26 mm in each case.
As to `Oc1ccc(-c2nnnn2-c2nc3ccccc3s2)cc1O`, the MIC against Escherichia coli [1], with Pseudomonas aeruginosa [2], against Staphylococcus aureus [3], in the experiment on Bacillus cereus [4], against Candida albicans [5] and against Aspergillus niger [12] was 50 to 100 µg/mL (≈ 161 to 321 µM) in each case. In addition, the zone of inhibition at 250 µg/mL in the experiment with Staphylococcus aureus [6], with Bacillus cereus [7], in the experiment on Escherichia coli [8], in the experiment with Pseudomonas aeruginosa [9], in the experiment on Candida albicans [10] and in the experiment on Aspergillus niger [11] was 16 to 26 mm each time.
For the compound `Oc1ccc(-c2nnnn2-c2nc3ccccc3s2)cc1`, the MIC in the experiment with Escherichia coli [1], against Pseudomonas aeruginosa [2], in the experiment on Staphylococcus aureus [3], in the experiment on Bacillus cereus [4], in the experiment on Candida albicans [5] and against Aspergillus niger [12] was 50 to 100 µg/mL (≈ 169 to 339 µM) each time. For the same compound, the zone of inhibition at 250 µg/mL in the experiment on Staphylococcus aureus [6], in the experiment on Bacillus cereus [7], in the experiment with Escherichia coli [8], with Pseudomonas aeruginosa [9], in the experiment with Candida albicans [10] and with Aspergillus niger [11] was 16 to 26 mm in each case.
